Data: PMC10766610, “DCAF1-based PROTACs with activity against clinically validated targets overcoming intrinsic- and acquired-degrader resistance” (Nature Communications, 2024)
Read-outs that look alike come from different tables or passages of the source. One block for each compound: values may come before it.

How the values were obtained:
DCAF1(WDR) [1] = biological target: T1, DCAF1(WDR) (Homo sapiens, UniProt Q9Y4B6, E1398S); assay: DCAF1 TR-FRET competition assay, standard binary format; format: binding; conditions: for IC50: binary
T1 construct: His6 (C); made in house; host or cells: Sf9 insect cells (baculovirus), co-expressed with BirA
Procedure: Competition assay conditions consist of 20 µL total volume in white 384-well plates (Greiner), in 30 mM phosphate buffer pH 7.4 containing 140 mM NaCl, 0.01% Tween20, 1 mM TCEP and 1% final DMSO. Tested compounds at 14 different concentrations were pre-incubated at 22 °C for 30 min with a large excess of 10 µM human BTK (G389-S659) or 10 µM human BRD9-BD(130-250) in the cooperative assay or with buffer in standard binary assay. […] Samples were then incubated at 22 °C for 30 min before reading using a Tecan infinite M-1000 or PheraStar FSX (excitation 340 nm, emission 490 and 520 nm). DCAF1 protein was omitted in the negative control. IC50 fitting was carried out using an in-house developed software (Novartis Helios software application, unpublished, a publicly available alternative would be e.g., Graphpad Prism) using the methods described by Fomenko et al.[93] (regression algorithms for nonlinear dose-response curve fitting). Following normalization of activity values for the wells to % inhibition (% inhibition = [(high control-sample)/(high control-low control)] × 100). Data analysis could also be carried out using GraphPad Prism without prior normalization. The reported IC50 values are the average of at least two independent experiments.

DCAF1(WDR) [2] = biological target: T1, DCAF1(WDR); assay: SPR, surface immobilized DCAF1(WDR), binary compound binding; conditions: for Kd: binary, compound alone, spread in brackets, read-out: SPR KD
BRD9 = biological target: T2, BRD9 (Homo sapiens, UniProt Q9H8M2); assay: Rescue of DBr-1 mediated BRD9 degradation by co-treatment, BRD9-HiBiT HEK293 cells; format: cell-based; design: host or cells: HEK293/BRD9-HiBiT knock-in; clone and BRD9-HiBiT/CAS9/FF clone; conditions: (13) 1 µM, OICR8268 10 µM, BI-9564 10 µM
T2 sequence (Q9H8M2 1-597): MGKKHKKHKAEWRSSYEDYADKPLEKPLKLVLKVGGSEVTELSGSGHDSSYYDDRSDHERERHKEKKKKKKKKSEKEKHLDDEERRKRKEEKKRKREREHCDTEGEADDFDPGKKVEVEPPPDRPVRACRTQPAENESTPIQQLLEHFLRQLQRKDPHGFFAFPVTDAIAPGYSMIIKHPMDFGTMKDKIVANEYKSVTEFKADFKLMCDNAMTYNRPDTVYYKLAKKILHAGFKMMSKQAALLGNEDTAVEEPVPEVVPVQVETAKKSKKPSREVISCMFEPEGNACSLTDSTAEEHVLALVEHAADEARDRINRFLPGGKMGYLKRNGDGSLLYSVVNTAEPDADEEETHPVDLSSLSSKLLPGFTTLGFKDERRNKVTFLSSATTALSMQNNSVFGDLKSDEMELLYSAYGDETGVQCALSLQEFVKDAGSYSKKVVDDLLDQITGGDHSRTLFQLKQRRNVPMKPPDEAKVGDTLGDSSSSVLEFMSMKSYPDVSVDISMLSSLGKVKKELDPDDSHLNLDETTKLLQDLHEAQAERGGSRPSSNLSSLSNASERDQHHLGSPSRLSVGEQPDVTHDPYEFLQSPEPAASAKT
Procedure: Supplementary figure 4. Competition experiments with DBr-1 and DBr-1-N […]
a) BRD9-HiBiT signal detection of samples pretreated with either DMSO, 10µM OICR-8268, 1µM […]
Data represents average ± standard deviation from n=3 replicates. DC50 values and […]
maximal observed degradation are shown below. […]
b) Cell titer Glow assay of BRD9 HiBiT cells. Cells pretreated with either DMSO, 10µM OICR-8268, […]
Data represents average ± standard deviation from n=3 replicates.
Source data are provided as a Source Data file

BTK = BTK (Homo sapiens, UniProt Q06187); assay: BTK-GFP degradation by flow cytometry in TMD8 BTK-GFP/mCh cells; format: cell-based; design: performed with full-length BTK and endogenous DCAF1; expressed in transfected cells; host or cells: TMD8 cells, lentiviral, blasticidin-selected (TMD8 BTK-GFP/mCh); conditions: TMD8 BTK-GFP/mCh, 24 h; for DC50: read-out: DC50 BTK-Degradation
Procedure: The bicistronic pLenti6 BTK-GFP-chysel-mCHERRY expression vector was cloned as described[92] using Gateway cloning with a pENTR-BTK plasmid lacking a STOP codon. TMD8 cells were then infected with lentiviral particles from this vector as described above and stably transfected cells were selected with blasticidin at a concentration of 10 μg/mL referred to as TMD8 BTK-GFP/mCh cells.
(§1) For flow cytometry measurements, 25,000 exponentially growing TMD8 BTK-GFP/mCh cells were plated in 100 μL of each well of a 96-well plate and grown for 24 h. Cells were then dosed with corresponding compounds and doses from 10 mM DMSO stock for 24 h, after which GFP and mCherry fluorescence was read with a Beckmann Coulter Cytoflex. For competition experiment, both compounds were added at the same time and dosed for 24 h. Cells were gated based on Forward & Side Scatter and selection for Single cells using SSC-A vs. SSC-H. Further, the population of viable cells was defined by the forward & side-scatter characteristics of DMSO-treated cells. To confirm cells outside of this population as non-viable, cells were plated and treated for 24 h, washed with PBS and stained for 30 min with two markers of early (Annexin-V) and late (LIVE/DEAD) apoptosis. Effects on viability were measured by the reduction of the percentage of cells included in this viable-population gate with increasing doses of compound tested. Degradation of BTK was calculated based on subtracting background (BG) fluorescence of parental TMD8 signal via (GFP-BG)/(mCherry-BG) of viable cells. Median ratios of three technical (different wells) replicates were used to calculate daily averages. Each compound dose–response was generated via three biological replicates (different days of experiment). Degradation curve parameters (DC50 & Abs. DC50 & max. Deg) were extracted using GraphPad Prism’s 4-parameter logistic curve fitting.

TMD8 BTK-GFP/mCh cells = assay: Viability by FSC/SSC gate (flow cytometry) in TMD8 BTK-GFP/mCh cells; format: cell-based, human; design: Max dose w/ Gating Viability >25%: unit: µM; conditions: TMD8 BTK-GFP/mCh, 24 h
Procedure: as §1, with “To confirm cells outside of this population as non-viable, cells were plated and treated for 24 h, washed with PBS and stained for 30 min with two markers of early (Annexin-V) and late (LIVE/DEAD) apoptosis.” left out
(§2) The viability window was determined by measuring the GI50 of viability based on the percentage of cells included in the viable gate and comparing it to the DC50 of degradation. The fold-change difference describing this window is [GI50 Viability / DC50 Degradation], where values above 1 indicate a positive (lower DC50 degradation than AC50 viability) window.

[3] = as above; format: cell-based, human; design: Max dose w/ Gating Viability >25%: unit: µM; conditions: human, TMD8 BTK-GFP/mCh cells, TMD8 BTK-GFP/mCh, 24 h
Procedure: as §1, with “To confirm cells outside of this population as non-viable, cells were plated and treated for 24 h, washed with PBS and stained for 30 min with two markers of early (Annexin-V) and late (LIVE/DEAD) apoptosis.” left out
as §2

BRD7 = biological target: T3, BRD7 (Homo sapiens, UniProt Q9NPI1); assay: BRD7-HiBiT protein abundance luminescence assay in HEK293 cells; conditions: read-out: rel. DC50 (BRD7), 2 h
T3 sequence (Q9NPI1 1-651): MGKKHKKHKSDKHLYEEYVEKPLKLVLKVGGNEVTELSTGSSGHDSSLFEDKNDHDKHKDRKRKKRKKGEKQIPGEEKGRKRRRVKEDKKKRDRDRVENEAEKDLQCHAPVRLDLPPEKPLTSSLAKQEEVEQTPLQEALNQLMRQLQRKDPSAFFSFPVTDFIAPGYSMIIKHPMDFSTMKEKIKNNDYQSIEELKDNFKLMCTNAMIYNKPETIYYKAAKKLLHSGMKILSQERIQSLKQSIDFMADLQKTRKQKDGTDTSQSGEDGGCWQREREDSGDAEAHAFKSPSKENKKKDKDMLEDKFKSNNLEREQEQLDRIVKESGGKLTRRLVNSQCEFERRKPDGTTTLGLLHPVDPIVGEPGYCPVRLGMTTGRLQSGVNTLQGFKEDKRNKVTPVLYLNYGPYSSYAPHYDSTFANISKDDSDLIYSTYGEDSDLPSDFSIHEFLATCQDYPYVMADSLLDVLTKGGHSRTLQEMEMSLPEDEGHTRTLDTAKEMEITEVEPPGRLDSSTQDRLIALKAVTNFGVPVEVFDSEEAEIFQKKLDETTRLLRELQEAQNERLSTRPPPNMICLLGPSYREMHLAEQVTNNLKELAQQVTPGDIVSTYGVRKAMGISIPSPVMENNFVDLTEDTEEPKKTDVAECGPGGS
From the text: HEK293/BRD9-HiBiT pools (PROMEGA # CS3023120) and HEK293/BRD7-HiBiT pools (PROMEGA # CS3023124) were purchased from Promega. We performed clonal selection for HEK293/BRD9-HiBiT cell line using single-cell sorting and screening for HiBiT expression using Nano-Glo HiBiT Lytic Detection System (Promega # N3030). The HEK293/BRD9-HiBiT clone and HEK293/BRD7-HiBiT pool to perform standard HiBiT assays.

[4] = compound alone, spread in brackets, read-out: TR-FRET Q. IC50

T1 sequence (Q9Y4B6 1073-1399 E1398S): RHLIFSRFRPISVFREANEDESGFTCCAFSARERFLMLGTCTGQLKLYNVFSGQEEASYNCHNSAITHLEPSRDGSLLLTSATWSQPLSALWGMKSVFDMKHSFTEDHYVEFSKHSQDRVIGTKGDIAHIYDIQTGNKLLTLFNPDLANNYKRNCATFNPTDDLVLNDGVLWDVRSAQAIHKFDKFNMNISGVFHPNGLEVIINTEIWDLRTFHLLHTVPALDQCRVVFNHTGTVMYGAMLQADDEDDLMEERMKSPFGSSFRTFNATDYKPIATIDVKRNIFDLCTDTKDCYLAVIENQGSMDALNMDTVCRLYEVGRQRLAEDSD
Sequence of BTK (Q06187 2-659 limits assumed): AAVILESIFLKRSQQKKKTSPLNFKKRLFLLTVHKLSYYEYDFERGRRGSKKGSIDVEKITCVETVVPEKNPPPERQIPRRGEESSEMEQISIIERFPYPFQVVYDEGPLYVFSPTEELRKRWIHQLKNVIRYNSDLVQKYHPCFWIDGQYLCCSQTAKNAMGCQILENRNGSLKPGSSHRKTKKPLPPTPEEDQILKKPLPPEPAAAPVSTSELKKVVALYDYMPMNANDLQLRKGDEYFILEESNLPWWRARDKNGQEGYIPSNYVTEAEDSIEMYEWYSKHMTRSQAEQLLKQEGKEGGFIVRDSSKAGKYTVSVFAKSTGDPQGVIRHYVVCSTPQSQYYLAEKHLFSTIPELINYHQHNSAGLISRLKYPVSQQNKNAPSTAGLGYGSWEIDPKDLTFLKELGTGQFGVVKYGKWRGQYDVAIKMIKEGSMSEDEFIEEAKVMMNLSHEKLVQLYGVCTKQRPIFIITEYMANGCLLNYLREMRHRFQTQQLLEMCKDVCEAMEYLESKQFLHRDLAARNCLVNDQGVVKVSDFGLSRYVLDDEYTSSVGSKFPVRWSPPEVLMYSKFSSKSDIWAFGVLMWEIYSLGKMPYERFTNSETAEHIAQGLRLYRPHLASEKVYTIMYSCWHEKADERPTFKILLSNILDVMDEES

Compound: COc1cc(-c2cn(C)c(=O)c3cnccc23)c(OC)cc1CN1CCC(OCCCCCC(=O)N2CCN(c3ccc4c(NCCN(C)C)nc(C5(c6ccc(Cl)cc6)CCCCC5)nc4c3)CC2)CC1 [DBr-1-N]
- relative reduction in affinity compared to DBr-1, TR-FRET (DCAF1(WDR) [1]): 41 fold
- IC50 (DCAF1(WDR) [1]; read-out: IC50 in TR-FRET assays (response to reviewers)): 812 nM
- relative reduction in affinity compared to DBr-1, SPR (DCAF1(WDR) [2]): 27 fold

Compound: NC(=O)C[C@H](NC(=O)c1c[nH]nc1-c1ccc(Cl)cc1F)c1ccc(F)c(Cl)c1 [OICR-8268]
- effect of co-treatment on DBr-1 mediated BRD9 degradation (BRD9): did not affect the degradation efficacy of DBr-1

Compound: Cc1c(NC(=O)c2ccc(C(C)(C)O)cc2F)cc(F)cc1-c1ncnc2[nH]c(-c3ccc(CN4CCC5(CCNCC5)CC4)cc3)cc12 [compound 18, reference compound]
- DC50 (BTK): 7890 nM
- Max dose w/ Gating Viability >25% (TMD8 BTK-GFP/mCh cells): 25
- GI50 at 24 h ([3]; read-out: Abs GI50): 9540 nM
- GI50 at 24 h ([3]; read-out: GI50): 7560 nM

Compound: Cc1c(NC(=O)N2CC(O)(CC(C)(C)C)C2)cc(F)cc1-c1ncnc2[nH]c(-c3cnn(CC(=O)N4CCC5(CCNCC5)CC4)c3)cc12 [compound 19]
- max. BTK degradation (%) (BTK): 0%
- DC50 (BTK): > 25000 nM
- Max dose w/ Gating Viability >25% (TMD8 BTK-GFP/mCh cells): 25
- GI50 at 24 h ([3]; read-out: GI50): > 25000 nM

Further lines, results first:

- IC50 (DCAF1(WDR) [1]; [4]): 20 nM
- Kd (DCAF1(WDR) [2]): 20 nM
Compound: CC(=O)NCCOCCOCCOCCOCCOCCOCCC(=O)N1CCN(c2ccc3c(NCCN)nc(C4(c5ccc(Cl)cc5)CCCC4)nc3c2)CC1 [compound 15]

- IC50 (DCAF1(WDR) [1]; [4]): 10 nM
- Kd (DCAF1(WDR) [2]): 50 nM
Compound: C#CCOCC(=O)N1CCN(c2ccc3c(NCCN)nc(C4(c5ccc(Cl)cc5)CCCCC4)nc3c2)CC1 [compound 16]

- DC50 (BRD7): > 10000 nM
Compound: COc1cc(-c2cn(C)c(=O)c3cnccc23)c(OC)cc1CN(C)CC(=O)NCCOCCOCCNc1cccc2c1C(=O)N(C1CCC(=O)NC1=O)C2=O (centres unmarked) [dBRD9]
